Assay results from US7994209B2, “3-phenoxymethylpyrrolidine compounds” (Theravance, Inc., priority 2009, dated 2011).

Assays:
[1] = target: T1, hSERT (Homo sapiens, UniProt P31645); assay: hSERT neurotransmitter uptake assay (3H-5-HT), Assay 2; assay type: cell-based; design: expressed in transfected cells; host or cells: HEK-293; conditions: serotonin reuptake inhibition, 3H-5-HT uptake, HEK-293 hSERT cells (values without asterisk); read-out: SERT pIC50 (converted)
[2] = target: T2, hNET (Homo sapiens, UniProt P23975); assay: hNET neurotransmitter uptake assay (3H-NE), Assay 2; assay type: cell-based; design: expressed in transfected cells; host or cells: HEK-293; conditions: norepinephrine reuptake inhibition, 3H-NE uptake, HEK-293 hNET cells (values without asterisk); read-out: NET pIC50 (converted)
[3] = target: T2, hNET; assay: hNET membrane radioligand binding assay (3H-nisoxetine), Assay 1
Description: Membrane radioligand binding assays were used to measure inhibition of labeled ligand (^3H-citalopram or ^3H-nisoxetine or ^3H-WIN35428) binding to membranes prepared from cells expressing the respective human recombinant transporter (hSERT or hNET or hDAT) in order to determine the pKi values of test compounds at the transporters.
Recombinant human embryonic kidney (HEK-293) derived cell lines stably transfected with hSERT or hNET, respectively, were grown in DMEM medium supplemented with 10% dialyzed FBS (for hSERT) or FBS (for hNET), 100 μg/mL penicillin, 100 μg/mL streptomycin, 2 mM L-glutamine and 250 μg/mL of the aminoglycoside antibiotic G418, in a 5% CO2 humidified incubator at 37° C. When cultures reached 80% confluence, the cells were washed thoroughly in PBS (without Ca^2+ and Mg^2+) and lifted with 5 mM EDTA in PBS. Cells were pelleted by centrifugation, resuspended in lysis buffer (10 mM Tris-HCl, pH7.5 containing 1 mM EDTA), homogenized, pelleted by centrifugation, then resuspended in 50 mM Tris-HCl, pH 7.5 and 10% sucrose at 4° C. Protein concentration of the membrane suspension was determined using a Bio-Rad Bradford Protein Assay kit. Membranes were snap frozen and stored at −80° C.
Binding assays were performed in a 96-well assay plate in a total volume of 200 μl assay buffer (50 mM Tris-HCl, 120 mM NaCl, 5 mM KCl, pH 7.4) with 0.5, 1, and 3 μg membrane protein, for SERT, NET and DAT, respectively.
Stock solutions (10 mM in DMSO) of test compound were prepared and serial dilutions made using Dilution Buffer (50 mM Tris-HCl, 120 mM NaCl, 5 mM KCl, pH 7.4, 0.1% BSA, 400 μM ascorbic acid).
Following a 60 minute incubation at 22° C. (or a period sufficient to reach equilibrium), the membranes were harvested by rapid filtration over a 96-well UniFilter GF/B plate, pretreated with 0.3% polyethyleneimine, and washed 6 times with 300 μl wash buffer (50 mM Tris-HCl, 0.9% NaCl, pH 7.5 at 4° C.). Plates were dried overnight at room temperature, approximately 45 μl of MicroScint™-20 (Perkin Elmer) added and bound radioactivity quantitated via liquid scintillation spectroscopy. Inhibition curves and saturation isotherms were analyzed using GraphPad Prism Software package (GraphPad Software, Inc., San Diego, Calif.). IC50 values were generated from concentration response curves using the Sigmoidal Dose Response (variable slope) algorithm in Prism GraphPad.

[4] = target: T1, hSERT; assay: hSERT membrane radioligand binding assay (3H-citalopram), Assay 1; conditions: SERT pKi, hSERT HEK-293 membranes, 1.0 nM 3H-citalopram; values given as lower bounds

T1 sequence (P31645 whole entry): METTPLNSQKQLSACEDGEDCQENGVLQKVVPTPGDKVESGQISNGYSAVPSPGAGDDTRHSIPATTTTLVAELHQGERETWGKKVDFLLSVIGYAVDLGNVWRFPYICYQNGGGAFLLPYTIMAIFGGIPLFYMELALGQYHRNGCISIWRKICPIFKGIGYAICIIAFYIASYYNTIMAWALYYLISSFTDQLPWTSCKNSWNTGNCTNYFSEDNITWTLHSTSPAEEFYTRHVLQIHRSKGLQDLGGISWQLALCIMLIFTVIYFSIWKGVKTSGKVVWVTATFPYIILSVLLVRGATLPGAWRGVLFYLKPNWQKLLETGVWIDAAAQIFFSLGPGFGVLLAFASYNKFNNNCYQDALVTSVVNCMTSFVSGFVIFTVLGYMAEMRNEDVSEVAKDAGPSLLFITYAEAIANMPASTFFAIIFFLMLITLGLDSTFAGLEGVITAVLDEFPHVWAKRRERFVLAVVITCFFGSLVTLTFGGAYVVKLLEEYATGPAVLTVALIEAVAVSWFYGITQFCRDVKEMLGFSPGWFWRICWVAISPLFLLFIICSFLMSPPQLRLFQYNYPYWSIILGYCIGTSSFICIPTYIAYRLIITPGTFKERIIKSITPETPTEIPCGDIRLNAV
T2 sequence (P23975 whole entry): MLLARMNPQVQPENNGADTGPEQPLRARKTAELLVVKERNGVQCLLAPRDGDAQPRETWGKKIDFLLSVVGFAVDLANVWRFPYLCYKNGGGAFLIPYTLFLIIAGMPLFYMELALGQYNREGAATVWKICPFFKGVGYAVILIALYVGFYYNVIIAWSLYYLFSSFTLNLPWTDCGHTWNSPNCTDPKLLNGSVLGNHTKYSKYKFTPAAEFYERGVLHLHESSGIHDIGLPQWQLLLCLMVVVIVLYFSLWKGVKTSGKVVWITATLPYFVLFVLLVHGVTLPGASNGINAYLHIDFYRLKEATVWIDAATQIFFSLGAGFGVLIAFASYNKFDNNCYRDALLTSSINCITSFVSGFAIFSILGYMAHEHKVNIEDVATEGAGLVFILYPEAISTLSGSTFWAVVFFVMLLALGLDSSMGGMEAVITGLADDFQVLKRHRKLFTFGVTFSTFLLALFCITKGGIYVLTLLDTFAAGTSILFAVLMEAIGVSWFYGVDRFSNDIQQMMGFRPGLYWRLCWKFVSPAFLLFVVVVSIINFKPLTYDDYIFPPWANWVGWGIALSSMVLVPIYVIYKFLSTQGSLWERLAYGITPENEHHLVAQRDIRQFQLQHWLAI

| Structure (SMILES) | IC50 [1] | IC50 [2] | Ki [3] | Ki [4] |
| --- | --- | --- | --- | --- |
| CC(C)[C@H](Oc1cccc2ccccc12)[C@H]1CCNC1 [Example 14-5, (S)-3-[(S)-2-Methyl-1-(naphthalen-1-yloxy)propyl]pyrrolidine] | ≤ 10 nM | ≤ 10 nM | ≤ 10 nM | ≤ 10 nM |
| Cc1ccccc1O[C@@H](C1CC1)[C@H]1CCNC1 [Example 16-3, (S)-3-((S)cyclopropyl-o-tolyloxymethyl)pyrrolidine] | ≤ 316 nM | ≤ 10 nM | ≤ 10 nM | ≤ 100 nM |
| Clc1cccc(O[C@H](C2CC2)[C@H]2CCNC2)c1Cl [Example 16-7, (S)-3-[(R)cyclopropyl-(2,3-dichlorophenoxy)methyl]pyrrolidine] | ≤ 10 nM | ≤ 10 nM | ≤ 10 nM | ≤ 10 nM |
| Clc1cccc(O[C@@H](C2CC2)[C@H]2CCNC2)c1Cl [Example 16-8, (S)-3-[(S)cyclopropyl-(2,3-dichlorophenoxy)methyl]pyrrolidine] | ≤ 10 nM | ≤ 10 nM | ≤ 10 nM | ≤ 10 nM |
| Fc1cccc(O[C@@H](C2CC2)[C@H]2CCNC2)c1Cl [Example 16-9, (S)-3-[(S)-(2-Chloro-3-fluorophenoxy)cyclopropylmethyl]pyrrolidine] | ≤ 100 nM | ≤ 10 nM | ≤ 10 nM | ≤ 10 nM |
| Fc1cccc(O[C@H](C2CC2)[C@H]2CCNC2)c1Cl [Example 16-10, (S)-3-[(R)-(2-Chloro-3-fluorophenoxy)cyclopropylmethyl]pyrrolidine] | ≤ 100 nM | ≤ 100 nM | ≤ 10 nM | ≤ 10 nM |
| FC(F)(F)c1c(Cl)cccc1O[C@@H](C1CC1)[C@H]1CCNC1 [Example 16-16, (S)-3-[(S)-(3-Chloro-2-trifluoromethylphenoxy)cyclopropylmethyl]pyrrolidine] | ≤ 10 nM | ≤ 10 nM | ≤ 10 nM | ≤ 10 nM |
| Clc1ccc(O[C@@H](C2CC2)[C@H]2CCNC2)c(Cl)c1 [Example 16-19, (S)-3-[(S)cyclopropyl-(2,4-dichlorophenoxy)methyl]pyrrolidine] | ≤ 10 nM | ≤ 10 nM | ≤ 10 nM | ≤ 10 nM |
| Fc1ccc(O[C@@H](C2CC2)[C@H]2CCNC2)c(Cl)c1 [Example 16-22, (S)-3-[(S)-(2-Chloro-4-fluorophenoxy)cyclopropylmethyl]pyrrolidine] | ≤ 100 nM | ≤ 10 nM | ≤ 10 nM | ≤ 10 nM |
| Cc1ccc(O[C@@H](C2CC2)[C@H]2CCNC2)c(Cl)c1 [Example 16-23, (S)-3-[(S)-(2-Chloro-4-methylphenoxy)cyclopropylmethyl]pyrrolidine] | ≤ 10 nM | ≤ 10 nM | ≤ 10 nM | ≤ 10 nM |
| Cc1ccc(O[C@@H](C2CC2)[C@H]2CCNC2)c(Br)c1 [Example 16-25, (S)-3-[(S)-(2-Bromo-4-methylphenoxy)cyclopropylmethyl]pyrrolidine] | ≤ 10 nM | ≤ 10 nM | ≤ 10 nM | ≤ 10 nM |
| Cc1ccc(O[C@@H](C2CC2)[C@H]2CCNC2)c(C)c1 [Example 16-28, (S)-3-[(S)cyclopropyl-(2,4-dimethylphenoxy)-methyl]pyrrolidine] | ≤ 10 nM | ≤ 10 nM | ≤ 10 nM | ≤ 10 nM |
| Cc1cc(Cl)ccc1O[C@@H](C1CC1)[C@H]1CCNC1 [Example 16-29, (S)-3-[(S)-(4-Chloro-2-methylphenoxy)cyclopropylmethyl]pyrrolidine] | ≤ 10 nM | ≤ 10 nM | ≤ 10 nM | ≤ 10 nM |
| CCc1cc(F)ccc1O[C@H](C1CC1)[C@H]1CCNC1 [Example 16-33, (S)-3-[(R)cyclopropyl-(2-ethyl-4-fluorophenoxy)-methyl]pyrrolidine] | ≤ 100 nM | ≤ 10 nM | ≤ 10 nM | ≤ 100 nM |
| CCc1cc(F)ccc1O[C@@H](C1CC1)[C@H]1CCNC1 [Example 16-34, (S)-3-[(S)cyclopropyl-(2-ethyl-4-fluorophenoxy)-methyl]pyrrolidine] | ≤ 10 nM | ≤ 10 nM | ≤ 10 nM | ≤ 10 nM |
| COc1cc(Cl)ccc1O[C@@H](C1CC1)[C@H]1CCNC1 [Example 16-37, (S)-3-[(S)-(4-Chloro-2-methoxyphenoxy)cyclopropylmethyl]pyrrolidine] | ≤ 10 nM | ≤ 10 nM | ≤ 10 nM | ≤ 10 nM |
| COc1cc(Cl)ccc1O[C@H](C1CC1)[C@H]1CCNC1 [Example 16-38, (S)-3-[(R)-(4-Chloro-2-methoxyphenoxy)cyclopropylmethyl]pyrrolidine] | ≤ 10 nM | ≤ 100 nM | ≤ 10 nM | ≤ 10 nM |
| Clc1cccc(Cl)c1O[C@@H](C1CC1)[C@H]1CCNC1 [Example 16-44, (S)-3-[(S)cyclopropyl-(2,6-dichlorophenoxy)-methyl]pyrrolidine] | ≤ 316 nM | ≤ 10 nM | ≤ 10 nM | ≤ 100 nM |
| Cc1ccc(O[C@H](C2CC2)[C@H]2CCNC2)c(F)c1F [Example 16-51, (S)-3-[(R)cyclopropyl-(2,3-difluoro-4-methylphenoxy)methyl]pyrrolidine] | ≤ 10 nM | ≤ 10 nM | ≤ 10 nM | ≤ 10 nM |
| COc1c(O[C@@H](C2CC2)[C@H]2CCNC2)ccc(Cl)c1Cl [Example 16-55, (S)-3-[(S)cyclopropyl-(3,4-dichloro-2-methoxyphenoxy)methyl]pyrrolidine] | ≤ 10 nM | ≤ 10 nM | ≤ 10 nM | ≤ 10 nM |
| Clc1ccc(Cl)c(O[C@@H](C2CC2)[C@H]2CCNC2)c1Cl [Example 16-58, (S)-3-[(S)cyclopropyl-(2,3,6-trichlorophenoxy)methyl]pyrrolidine] | ≤ 100 nM | ≤ 10 nM | ≤ 10 nM | ≤ 10 nM |
| Fc1ccc(F)c(O[C@@H](C2CC2)[C@H]2CCNC2)c1Cl [Example 16-61, (S)-3-[(S)-(2-Chloro-3,6-difluorophenoxy)cyclopropylmethyl]pyrrolidine] | ≤ 100 nM | ≤ 10 nM | ≤ 10 nM | ≤ 10 nM |
| COc1ccc(F)c(O[C@H](C2CC2)[C@H]2CCNC2)c1Cl [Example 16-65, (S)-3-[(R)-(2-Chloro-6-fluoro-3-methoxyphenoxy)cyclopropylmethyl]pyrrolidine] | ≤ 10 nM | ≤ 10 nM | ≤ 10 nM | ≤ 10 nM |
| Fc1cc(Cl)cc(Cl)c1O[C@H](C1CC1)[C@H]1CCNC1 [Example 16-76, (S)-3-[(R)cyclopropyl-(2,4-dichloro-6-fluorophenoxy)methyl]pyrrolidine] | ≤ 10 nM | ≤ 10 nM | ≤ 10 nM | ≤ 10 nM |
| Cc1cc(Cl)cc(Cl)c1O[C@@H](C1CC1)[C@H]1CCNC1 [Example 16-77, (S)-3-[(S)cyclopropyl-(2,4-dichloro-6-methylphenoxy)methyl]pyrrolidine] | ≤ 10 nM | ≤ 100 nM | ≤ 10 nM | ≤ 10 nM |
| Fc1cc(Cl)cc(F)c1O[C@@H](C1CC1)[C@H]1CCNC1 [Example 16-79, (S)-3-[(S)-(4-Chloro-2,6-difluorophenoxy)cyclopropylmethyl]pyrrolidine] | ≤ 10 nM | ≤ 10 nM | ≤ 10 nM | ≤ 10 nM |
